In patent publication US5401512A, “Delayed release oral dosage forms for treatment of intestinal disorders” (priority 1991, dated 1995):

Experiments:
[1] = Total urinary excretion of 5-ASA and N-acetyl-5-ASA after single oral dose in seven healthy volunteers; type: in vivo, healthy volunteers (human); conditions: 7 volunteers
Procedure: (§1) Each of the batches of coated granules were separately packed into size 00 hard gelatin capsules (LOK-CAP, Eli Lilly) in an amount of 400 mg granules per capsule. The capsules were then spray coated with […] per capsule of a coating solution of the following formula: […]
(§2) Seven healthy volunteers were then each given blind on three separate occasions a single dose consisting of (a) 8 tablets of enteric coated 500 mg sulphasalazine tablets, (b) 8 of the enteric coated capsules containing the 20% Eudragit coated 5-ASA granules, and (c) 8 of the enteric coated capsules containing the 25% Eudragit coated 5-ASA granules. The serum levels of 5-ASA and N-acetyl-5-ASA at various times following administration were measured together with the total urinary excretion of 5-ASA and N-acetyl-5-ASA. In each case the values are given to three significant figures with 0 representing less than 2 ng/ml.

[2] = Serum levels of 5-ASA and N-acetyl-5-ASA after single oral dose in seven healthy volunteers; type: in vivo, healthy volunteers (human); conditions: 7 volunteers
Procedure: as §1
as §2, with “ng/ml. The following abbreviations are used:” for “ng/ml.”
Tmax =time for the maximum serum concentration in hours, median and interquartials ranges
Cmax =maximum serum concentration attained in ng/ml
Thalf =estimated biological half life of elimination
KE=estimated first order in elimination rate constant

[3] = cited from earlier work; for Absorption before reaching the colon: oral administration, sulphapyridine and 5-ASA without the azo-bond

Row | SMILES | Mean urinary excretion of 5-ASA ([1]; 5-ASA) [ng/mL] | Mean urinary excretion of N-Ac-5-ASA ([1]; N-Ac-5-ASA) [ng/mL] | Thalf (estimated biological half life of elimination) of 5-ASA ([2]; 5-ASA) | Thalf (estimated biological half life of elimination) of N-Ac-5-ASA ([2]; N-Ac-5-ASA) | Absorption before reaching the colon [3] | Pharmacologically active agent in treatment of colonic disease with SASP ([3]; Khan et al, The Lancet 1977)
1 | O=C(O)c1cc(/N=N/c2ccc(S(=O)(=O)Nc3ccccn3)cc2)ccc1O [Sulphasalazine, Salicylazosulphapyridine] | 0 ± 0 | 170 ± 35 | 19.4 ± 12.9 | 60.1 ± 50.1 | only absorbed to a limited extent before reaching the colon | –
2 | Nc1ccc(S(=O)(=O)Nc2ccccn2)cc1 [sulphapyridine] | – | – | – | – | almost entirely absorbed from the small intestine before reaching the colon | –
3 | Nc1ccc(O)c(C(=O)O)c1 [5-ASA, 5-amino-salicylic acid] | – | – | – | – | almost entirely absorbed from the small intestine before reaching the colon | pharmacologically active agent
